The term pIC50 denotes the negative decadic logarithm of the IC50, by convention in mol/L. As usually defined, the Papp A→B is the apparent permeability from the apical to the basolateral side of a cell layer. As usually defined, the Papp B→A is how fast a substance crosses the layer from the basolateral side. By microsomal CLint is commonly meant a measure of how fast metabolising enzymes remove a compound, apart from limits set by blood flow.

pIC50: −log10 of the molar value. Read-outs that look alike come from different tables or passages of the source. Bounds are passed on as bounds.

The results in this text go back to US12622910B2, “Inhibitors of Bruton's tyrosine kinase and methods of their use” (Janssen Pharmaceutica NV, priority 2021, dated 2026).

One data set addresses H1 (Histamine H1) (Homo sapiens, UniProt P35367). Kind of data set: Receptor panel, Study 3 (agonist/antagonist). The format is biochemical. The note with it: n = 2. The method, then:
(§1) RESULTS AND DISCUSSION—Selectivity—The compound of Formula (III) was evaluated in three selectivity panels to assess the potential for off-target pharmacology (Table 8). […] The kinase off-target profile of The compound of Formula (III) was assessed in a full human wild-type panel using radiometric kinase activity assays (KinaseProfiler™ and IC50Profiler™; Eurofins Scientific) (Table 9; FIG. 23). The compound of Formula (III) inhibited 4/278 kinases >50% at 1 micromolar, identifying BTK and the three other kinases having analogous Cys residues with the potential for covalent inhibition (BMX, TEC, BLK). […]. The cellular kinase selectivity of The compound of Formula (III) was established in native Ramos B cell kinome assays (KiNativ™; ActivX) confirmed BTK as the primary target with inhibition of BLK and TEC inhibition detected (Table 10).

The target of a further data set is ADRB2 (Adrenergic beta) (Homo sapiens, UniProt P07550). Kind of data set: Receptor panel, Study 3 (agonist/antagonist). Particulars: n = 2. Type of data set: biochemical. The method, then:
as §1

In a further data set the target is DOP (Opioid delta) (Homo sapiens, UniProt P41143). Kind of data set: Receptor panel, Study 3 (agonist/antagonist). The format is biochemical. Particulars: n = 2; comment 20%. The method, then:
as §1

In the next data set the target is D2L (Dopamine 2L) (Homo sapiens, UniProt P14416). Kind of data set: Receptor panel, Study 3 (agonist/antagonist). The format is biochemical. The note with it: n = 2. The method, then: as §1
In the next data set the target is ADRB1 (Adrenergic beta) (Homo sapiens, UniProt P08588). Kind of data set: Receptor panel, Study 3 (agonist/antagonist). The note with it: n = 2. Type of data set: biochemical. The method, then: as §1
A short description of another data set: Caco-2 permeability. Particulars: human. The format is in vitro ADME. A general note: Passage across Caco-2 layers is used to estimate intestinal permeability.
For another data set, the system named is Caco-2. Description: Caco-2 permeability. Type of data set: in vitro ADME. The note with it: Caco-2, 5 μM.
The subject of the next data set is P-gp (MDR1). Kind of data set: in vitro. Particulars: dog, MDCK-MDR1.
Data set [1] in a line: Blood-to-plasma concentration ratio. Particulars: rat, fresh blood. The format is in vitro ADME.
A short description of data set [2]: Metabolic stability in liver microsomes. Type of data set: in vitro ADME, human. The method, then:
(§2) Additional Data on Preclinical PK Profile—Protein binding of the compound of Formula (III) was studied using an equilibrium dialysis method in plasma from human, cynomolgus monkey, beagle dog, Sprague Dawley rat, CD-1 mouse, and guinea pig at 0.25, 2.5, and 25 μM. […] In human and monkey, the plasma protein binding was concentration dependent. […] Free fraction of the compound of Formula (III) in liver microsomes from various species ranged from 75.1% to 87.9% at 0.25 mg/mL and from 58.9% to 86.5% at 1.0 mg/mL (Table 17). […] In hepatocytes, the compound of Formula (III) turnover followed a similar trend, with T1/2 ranging from 75.3 minutes in monkey to 278.1 minutes in human.

Data set [3] is described as follows: Plasma protein binding, equilibrium dialysis. Type of data set: in vitro ADME, human. The method, then:
as §2
On the technique in general: In equilibrium dialysis only unbound substance equilibrates across the membrane.

Chain of H1 (Histamine H1) (P35367 whole entry): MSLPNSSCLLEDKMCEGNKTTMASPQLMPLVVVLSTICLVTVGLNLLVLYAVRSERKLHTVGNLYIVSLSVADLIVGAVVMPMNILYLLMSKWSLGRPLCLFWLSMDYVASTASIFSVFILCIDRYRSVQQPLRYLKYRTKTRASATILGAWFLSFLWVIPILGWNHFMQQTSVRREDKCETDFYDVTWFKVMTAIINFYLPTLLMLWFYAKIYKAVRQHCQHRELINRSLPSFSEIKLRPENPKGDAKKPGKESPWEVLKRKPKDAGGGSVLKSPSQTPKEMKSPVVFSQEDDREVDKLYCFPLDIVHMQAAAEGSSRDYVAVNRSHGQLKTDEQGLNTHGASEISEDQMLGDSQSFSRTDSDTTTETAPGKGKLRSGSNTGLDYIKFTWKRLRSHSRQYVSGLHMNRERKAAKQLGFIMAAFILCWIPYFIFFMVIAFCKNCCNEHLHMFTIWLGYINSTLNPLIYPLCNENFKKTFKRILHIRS
Chain of ADRB2 (Adrenergic beta) (P07550 whole entry, species assumed): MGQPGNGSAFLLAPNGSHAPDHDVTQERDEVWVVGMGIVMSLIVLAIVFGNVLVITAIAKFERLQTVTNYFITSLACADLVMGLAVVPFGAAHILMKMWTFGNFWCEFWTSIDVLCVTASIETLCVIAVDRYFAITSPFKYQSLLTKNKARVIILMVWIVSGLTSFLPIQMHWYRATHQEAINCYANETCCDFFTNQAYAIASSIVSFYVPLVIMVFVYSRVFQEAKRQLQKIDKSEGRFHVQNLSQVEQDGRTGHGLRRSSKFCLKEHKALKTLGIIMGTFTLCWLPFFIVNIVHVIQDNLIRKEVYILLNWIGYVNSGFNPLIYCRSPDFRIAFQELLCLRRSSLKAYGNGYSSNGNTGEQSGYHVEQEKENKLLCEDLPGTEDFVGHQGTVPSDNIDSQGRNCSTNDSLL
Chain of DOP (Opioid delta) (P41143 whole entry): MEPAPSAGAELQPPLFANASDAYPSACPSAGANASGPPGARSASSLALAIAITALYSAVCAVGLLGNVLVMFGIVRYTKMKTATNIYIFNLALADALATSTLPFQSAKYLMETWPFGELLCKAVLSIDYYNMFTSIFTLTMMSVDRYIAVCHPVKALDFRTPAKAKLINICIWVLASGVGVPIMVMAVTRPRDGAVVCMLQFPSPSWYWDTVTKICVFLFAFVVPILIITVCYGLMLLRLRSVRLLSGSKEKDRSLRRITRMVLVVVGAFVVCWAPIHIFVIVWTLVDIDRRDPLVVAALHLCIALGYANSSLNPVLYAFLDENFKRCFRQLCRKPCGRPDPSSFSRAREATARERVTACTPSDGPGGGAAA
Chain of ADRB1 (Adrenergic beta) (P08588 whole entry, species assumed): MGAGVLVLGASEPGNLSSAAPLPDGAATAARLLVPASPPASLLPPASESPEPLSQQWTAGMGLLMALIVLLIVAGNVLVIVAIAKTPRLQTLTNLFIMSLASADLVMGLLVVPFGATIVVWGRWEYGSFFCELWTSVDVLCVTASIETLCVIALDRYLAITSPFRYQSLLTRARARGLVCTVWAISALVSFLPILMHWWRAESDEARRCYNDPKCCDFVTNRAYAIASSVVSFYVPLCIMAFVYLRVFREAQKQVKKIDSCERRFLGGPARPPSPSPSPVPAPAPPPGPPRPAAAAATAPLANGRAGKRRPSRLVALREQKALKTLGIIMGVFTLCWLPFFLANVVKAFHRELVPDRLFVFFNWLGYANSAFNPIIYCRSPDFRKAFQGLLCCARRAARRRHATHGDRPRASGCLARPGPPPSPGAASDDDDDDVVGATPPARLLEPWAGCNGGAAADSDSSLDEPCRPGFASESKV
Chain of D2L (Dopamine 2L) (P14416 whole entry): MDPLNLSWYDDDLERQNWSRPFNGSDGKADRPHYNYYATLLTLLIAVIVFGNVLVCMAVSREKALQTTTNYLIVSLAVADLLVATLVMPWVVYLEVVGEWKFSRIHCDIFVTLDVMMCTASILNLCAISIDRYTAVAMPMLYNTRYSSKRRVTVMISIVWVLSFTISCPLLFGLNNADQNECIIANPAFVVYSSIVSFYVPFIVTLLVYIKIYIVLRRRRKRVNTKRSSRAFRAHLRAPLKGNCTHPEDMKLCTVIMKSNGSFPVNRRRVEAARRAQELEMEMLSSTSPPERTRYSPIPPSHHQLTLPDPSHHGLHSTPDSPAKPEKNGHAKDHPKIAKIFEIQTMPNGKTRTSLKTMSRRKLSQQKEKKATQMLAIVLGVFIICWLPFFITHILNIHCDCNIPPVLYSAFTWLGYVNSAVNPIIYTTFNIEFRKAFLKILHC
Procedure for P-gp (MDR1): In vitro Absorption, Distribution, Metabolism, and Excretion—The compound of Formula (III) was assessed at a concentration of 5 μM in cell permeability models.

For the compound `C=CC(=O)N[C@H]1CCC[C@H]1NC(=O)c1sc2nccc3c2c1NC(=O)N3c1cnc(CC(C)C)cc1C` (atropisomer, axis not shown) [compound of Formula (III), N-((1R,2S)-2-Acrylamidocyclopentyl)-5-(S)-(6-isobutyl-4-methylpyridin-3-yl)-4-oxo-4,5-dihydro-3H-1-thia-3,5,8-triazaacenaphthylene-2-carboxamide], the pIC50 at H1 (Histamine H1) (read-out: Agonist IC50) was less than 5.00; at H1 (Histamine H1) (read-out: Antagonist IC50), less than 5.00; on ADRB2 (Adrenergic beta), less than 4.90; at DOP (Opioid delta), less than 5.00; at D2L (Dopamine 2L), less than 4.90; at ADRB1 (Adrenergic beta) it was less than 4.90. Besides, the efflux ratio at 5 μM in the data set “Caco-2 permeability” (Caco-2, read-out: Efflux Ratio (BA/AB)) is 8.2; in the data set with P-gp (MDR1), more than 115. Moreover, the Papp A→B at 5 μM in the data set “Caco-2 permeability” (Caco-2, 5 μM) is 6.69 ×10⁻⁶ cm/s; with P-gp (MDR1) it was less than 0.483 ×10⁻⁶ cm/s. Further, the Papp B→A at 5 μM in the data set “Caco-2 permeability” (Caco-2, 5 μM) turned out to be 54.9 ×10⁻⁶ cm/s; with P-gp (MDR1), 55.4 ×10⁻⁶ cm/s. In the data set with Caco-2, the “Papp A to B” value is given as 6.69 10^−6 cm/s. In addition, the “Papp B to A” value in the data set on Caco-2 was 54.9 10^−6 cm/s. The blood plasma ratio at 1 μM in data set [1] was 1.37. Moreover, the “Extraction Ratio, liver microsomes” value in data set [2] (Human) came to 0.63. In data set [2] (human, liver microsomes), this compound yielded an intrinsic metabolic clearance (microsomal CLint) of 31.1 µL/min/mg. For the same compound, in data set [2] (human, liver microsomes, read-out: T1/2, liver microsomes), the half-life amounted to 22.3 min. Also, the “% Free in plasma” value in [3] (2.5 μM) was determined as 3.1%. Also, in data set [3] (human, plasma, 0.25 μM, read-out: % Free in plasma), the fraction unbound at 0.25 μM turned out to be 0.0169. The fraction unbound at 25 μM in data set [3] (human, plasma, 25 μM, read-out: % Free in plasma) came to 0.0463.
